The record followed here is patent US7994204B2, “Binding inhibitor of sphingosine-1-phosphate” (Taisho Pharmaceutical Co., Ltd, priority 2006, dated 2011).

The first test deals with T1, human Edg-1 (S1P1) (Homo sapiens, UniProt P21453).
T1 construct: expressed in transfected cells; host or cells: HEK-293
T1 sequence (P21453 whole entry): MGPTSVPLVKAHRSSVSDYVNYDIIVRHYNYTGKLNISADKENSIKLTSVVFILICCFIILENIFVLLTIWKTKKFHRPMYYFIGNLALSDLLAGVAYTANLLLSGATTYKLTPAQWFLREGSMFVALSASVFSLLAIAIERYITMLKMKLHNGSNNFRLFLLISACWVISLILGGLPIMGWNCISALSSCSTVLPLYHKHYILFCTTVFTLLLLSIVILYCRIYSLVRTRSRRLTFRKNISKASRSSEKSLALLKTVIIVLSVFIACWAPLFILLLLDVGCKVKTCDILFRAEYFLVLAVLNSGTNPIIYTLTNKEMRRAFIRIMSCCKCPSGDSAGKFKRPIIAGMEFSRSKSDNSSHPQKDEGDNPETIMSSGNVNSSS
Kind of test: S1P1 binding inhibition test (membrane, [33P]-S1P). The settings on record: compound 10 μM; [33P]-S1P 0.1 nM; human Edg-1 (S1P1) HEK-293 membrane fraction; read-out: Binding test (membrane) % inhibition (10 μM). On the procedure: The membrane fraction was obtained by treating the cells with a solubilizing buffer (1 mM Tris/HCl, pH 7.2) for 10 minutes on ice, centrifuging at 1000×g for 5 minutes to remove insoluble fractions, and then centrifuging at 40000×g for 30 minutes at 4° C. The resulting membrane fraction was dissolved in a binding buffer (20 mM Tris-HCl, pH 7.4, 100 mM NaCl, 15 mM NaF, 2 mM deoxypyridoxine, 4 mg/mL fatty acid-free BSA), and then [^33P]-S1P (manufactured by ARC, final concentration 0.1 nM) and a DMSO solution (final concentration of the compound 10^−5 M, final concentration of DMSO 0.1%) of the test compound were added. Thereafter, the mixture was stirred and then treated for one hour at 30° C. Using a harvester, the membrane fraction was harvested onto unifilter-96 GF/C filter (manufactured by Perkin Elmer), washing was carried out four times with the binding buffer, and the filter was dried. Twenty five μL Microscint 0 (manufactured by Perkin Elmer) was added, and radioactivity was measured using Top Count NXT (manufactured by Packard) to calculate the amount (A) of [^33P]-S1P bound to the membrane fraction at the time when the compound was added.
The same procedure was carried out in the absence of the test compound, and the amount (B) of [^33P]-S1P bound was calculated. Further, the same procedure was carried out in the absence of the test compound by use of HEK-293 cells to which no Edg-1 (S1P1) gene was introduced, and the background amount (C) of [^33P]-S1P bound was calculated.
Inhibition rate (%)=[1−(A−C)/(B−C)]×100.
Moreover, the concentration required for a test compound to produce 50% inhibition of the binding caused in the absence of the test compound was also calculated (IC50). The above membrane system binding test was performed in the presence of a test compound at various concentrations to calculate the inhibition rate of Edg-1(S1P1) binding at each concentration according to the above equation, followed by calculating an IC50 value for each compound with data analysis software, Origin (Lightstone Corp., Japan).
With `CCn1c(C(C)NS(=O)(=O)c2cccc(Cl)c2)cnc1Oc1ccc(C)cc1` (stereo not shown) [Compound 84], the inhibition at 10 µM stood at 72.4%.

`CCn1c(C(C)NS(=O)(=O)c2cc(F)cc(Cl)c2C)cnc1Oc1ccc(C)cc1` (stereo not shown) [Compound 86]: the inhibition at 10 µM stood at 74.4%.

For `CCc1cc(Br)ccc1S(=O)(=O)NC(C)c1cnc(Oc2ccc(C)cc2)n1CC` (stereo not shown) [Compound 87], the inhibition at 10 µM amounted to 65.6%.

Turning to `CCn1c(C(C)NS(=O)(=O)c2ccc(Br)cc2C)cnc1Oc1ccc(C)cc1` (stereo not shown) [Compound 88], the inhibition at 10 µM amounted to 74.2%.

With `CCn1c(C(C)NS(=O)(=O)c2ccc(C#N)cc2Cl)cnc1Oc1ccc(C)cc1` (stereo not shown) [Compound 89], the inhibition at 10 µM was 71.8%.

For the molecule `CCn1c(C(C)NS(=O)(=O)c2ccc(F)c(F)c2F)cnc1Oc1ccc(C)cc1` (stereo not shown) [Compound 90], the inhibition at 10 µM was 78.6%.

Take `CCn1c(C(C)NS(=O)(=O)c2cc(F)c(F)cc2Cl)cnc1Oc1ccc(C)cc1` (stereo not shown) [Compound 93]: the inhibition at 10 µM worked out at 75.2%.

As for `CCn1c(C(C)NS(=O)(=O)c2ccc(F)c(F)c2)cnc1Oc1ccc(C)cc1` (stereo not shown) [Compound 94], the inhibition at 10 µM was 86.5%.

On to `CCn1c(C(C)NS(=O)(=O)c2ccc(Br)cc2F)cnc1Oc1ccc(C)cc1` (stereo not shown) [Compound 95], for which the inhibition at 10 µM came to 80.1%.

For `CCn1c(C(C)NS(=O)(=O)c2cc(F)c(Cl)cc2F)cnc1Oc1ccc(C)cc1` (stereo not shown) [Compound 96], the inhibition at 10 µM turned out to be 80.4%.

`CCn1c(C(C)NS(=O)(=O)c2cc(C)c(Cl)cc2Cl)cnc1Oc1ccc(C)cc1` (stereo not shown) [Compound 101]: the inhibition at 10 µM worked out at 107%.

For `CCn1c(C(C)NS(=O)(=O)c2c(F)c(Br)cc(F)c2Br)cnc1Oc1ccc(C)cc1` (stereo not shown) [Compound 102], the inhibition at 10 µM was 78.2%.

For the molecule `CCn1c(C(C)NS(=O)(=O)c2c(F)cccc2F)cnc1Oc1ccc(C)cc1` (stereo not shown) [Compound 103], the inhibition at 10 µM is 53%.

For the molecule `CCn1c(C(C)NS(=O)(=O)c2cc(C(F)(F)F)ccc2Cl)cnc1Oc1ccc(C)cc1` (stereo not shown) [Compound 104], the inhibition at 10 µM came to 70.9%.

Consider `CCn1c(C(C)NS(=O)(=O)c2cccc(F)c2)cnc1Oc1ccc(C)cc1` (stereo not shown) [Compound 105], for which the inhibition at 10 µM worked out at 84.2%.

As to `CCn1c(C(C)NS(=O)(=O)c2cc(Cl)ccc2OC)cnc1Oc1ccc(C)cc1` (stereo not shown) [Compound 107], the inhibition at 10 µM is 79.8%.

Consider `CCn1c(C(C)NS(=O)(=O)c2c(C)cc(Cl)cc2Cl)cnc1Oc1ccc(C)cc1` (stereo not shown) [Compound 108], for which the inhibition at 10 µM was 81.3%.

Consider `CCn1c(C(C)NS(=O)(=O)c2cc(F)c(F)cc2F)cnc1Oc1ccc(C)cc1` (stereo not shown) [Compound 109], for which the inhibition at 10 µM was 81.3%.

`CCn1c(C(C)NS(=O)(=O)c2cc(Br)ccc2Br)cnc1Oc1ccc(C)cc1` (stereo not shown) [Compound 110]: the inhibition at 10 µM worked out at 86.4%.

For `CCn1c(C(C)NS(=O)(=O)c2ccc(-c3ccno3)s2)cnc1Oc1ccc(C)cc1` (stereo not shown) [Compound 111], the inhibition at 10 µM is 59.6%.

For `CCn1c(C(C)NS(=O)(=O)c2ccc(Br)cc2Br)cnc1Oc1ccc(C)cc1` (stereo not shown) [Compound 113], the inhibition at 10 µM turned out to be 77.8%.

For the molecule `CCn1c(C(C)NS(=O)(=O)c2ccc(F)c(C#N)c2)cnc1Oc1ccc(C)cc1` (stereo not shown) [Compound 114], the inhibition at 10 µM stood at 96.8%.

`CCn1c(C(C)NS(=O)(=O)c2cc(C)cc(C)c2)cnc1Oc1ccc(C)cc1` (stereo not shown) [Compound 115]: the inhibition at 10 µM is 92.9%.

On to `CCn1c(C(C)NS(=O)(=O)c2ccc(OC(F)F)cc2)cnc1Oc1ccc(C)cc1` (stereo not shown) [Compound 116], for which the inhibition at 10 µM was found to be 78.2%.

Turning to `CCn1c(C(C)NS(=O)(=O)c2cccc(OC(F)F)c2)cnc1Oc1ccc(C)cc1` (stereo not shown) [Compound 117], the inhibition at 10 µM is 87.3%.

Take `CCn1c(C(C)NS(=O)(=O)c2c(F)cc(F)cc2Br)cnc1Oc1ccc(C)cc1` (stereo not shown) [Compound 118]: the inhibition at 10 µM was determined as 62.5%.

Take `CCn1c(C(C)NS(=O)(=O)c2cc(F)cc(F)c2)cnc1Oc1ccc(C)cc1` (stereo not shown) [Compound 119]: the inhibition at 10 µM stood at 91.1%.

`CCn1c(C(C)NS(=O)(=O)c2ccc(Cl)cc2F)cnc1Oc1ccc(C)cc1` (stereo not shown) [Compound 120]: the inhibition at 10 µM is 81.2%.

With `CCn1c(C(C)NS(=O)(=O)c2cc(F)c(F)c(F)c2)cnc1Oc1ccc(C)cc1` (stereo not shown) [Compound 121], the inhibition at 10 µM is 101%.

For the molecule `CCn1c(C(C)NS(=O)(=O)c2ccc(Br)c(C)c2)cnc1Oc1ccc(C)cc1` (stereo not shown) [Compound 122], the inhibition at 10 µM is 100%.

Regarding `CCn1c(C(C)NS(=O)(=O)c2ccc(F)cc2Br)cnc1Oc1ccc(C)cc1` (stereo not shown) [Compound 123], the inhibition at 10 µM came out at 70.6%.

Turning to `CCn1c(C(C)NS(=O)(=O)c2ccc(C(F)(F)F)cc2Br)cnc1Oc1ccc(C)cc1` (stereo not shown) [Compound 124], the inhibition at 10 µM worked out at 65.6%.

Take `CCn1c(C(C)NS(=O)(=O)c2ccc(C)c(F)c2)cnc1Oc1ccc(C)cc1` (stereo not shown) [Compound 126]: the inhibition at 10 µM amounted to 99.3%.

`CCn1c(C(C)NS(=O)(=O)c2ccc(F)cc2C)cnc1Oc1ccc(C)cc1` (stereo not shown) [Compound 127]: the inhibition at 10 µM worked out at 86.4%.

With `CCn1c(C(C)NS(=O)(=O)c2cc(Cl)ccc2F)cnc1Oc1ccc(C)cc1` (stereo not shown) [Compound 128], the inhibition at 10 µM turned out to be 65.6%.

Consider `CCn1c(C(C)NS(=O)(=O)c2ccc(Br)c(F)c2)cnc1Oc1ccc(C)cc1` (stereo not shown) [Compound 129], for which the inhibition at 10 µM was determined as 102%.

As to `CCn1c(C(C)NS(=O)(=O)c2ccc(Br)cc2Cl)cnc1Oc1ccc(C)cc1` (stereo not shown) [Compound 130], the inhibition at 10 µM stood at 77.5%.

For the molecule `CCn1c(C(C)NS(=O)(=O)c2ccc(C)c(C)c2)cnc1Oc1ccc(C)cc1` (stereo not shown) [Compound 133], the inhibition at 10 µM turned out to be 104%.

As to `CCn1c(C(C)NS(=O)(=O)c2cc(C)ccc2F)cnc1Oc1ccc(C)cc1` (stereo not shown) [Compound 134], the inhibition at 10 µM was determined as 81%.

`CCn1c(C(C)NS(=O)(=O)c2cccc(Cl)c2F)cnc1Oc1ccc(C)cc1` (stereo not shown) [Compound 135]: the inhibition at 10 µM is 83.4%.

As to `CCn1c(C(C)NS(=O)(=O)c2cc(C)oc2C(F)(F)F)cnc1Oc1ccc(C)cc1` (stereo not shown) [Compound 143], the inhibition at 10 µM came to 58.8%.

With `CCn1c(C(C)NS(=O)(=O)c2ccc3c(c2)OCCO3)cnc1Oc1ccc(C)cc1` (stereo not shown) [Compound 144], the inhibition at 10 µM was found to be 94.1%.

Turning to `CCn1c(C(C)NS(=O)(=O)c2cccc3nsnc23)cnc1Oc1ccc(C)cc1` (stereo not shown) [Compound 146], the inhibition at 10 µM amounted to 57.8%.

Consider `CCn1c(C(C)NS(=O)(=O)c2ccc3nsnc3c2)cnc1Oc1ccc(C)cc1` (stereo not shown) [Compound 147], for which the inhibition at 10 µM is 73.2%.

For the molecule `CCn1c(C(C)NS(=O)(=O)c2ccc(C(F)(F)F)cc2Cl)cnc1Oc1ccc(C)cc1` (stereo not shown) [Compound 158], the inhibition at 10 µM was 57%.

Regarding `CCn1c(C(C)NS(=O)(=O)c2cccc(C(C)=O)c2)cnc1Oc1ccc(C)cc1` (stereo not shown) [Compound 161], the inhibition at 10 µM was found to be 71.2%.

As to `CCn1c(C(C)NS(=O)(=O)c2ccc(F)c3ccccc23)cnc1Oc1ccc(C)cc1` (stereo not shown) [Compound 162], the inhibition at 10 µM worked out at 70.2%.

As for `CCc1ccc(OC)c(S(=O)(=O)NC(C)c2cnc(Oc3ccc(C)cc3)n2CC)c1` (stereo not shown) [Compound 166], the inhibition at 10 µM was 80.7%.

Consider `CCn1c(C(C)NS(=O)(=O)c2cccc3cnccc23)cnc1Oc1ccc(C)cc1` (stereo not shown) [Compound 169], for which the inhibition at 10 µM was found to be 62%.

For `CCn1c(C(C)NS(=O)(=O)c2ccc(Br)c(C(F)(F)F)c2)cnc1Oc1ccc(C)cc1` (stereo not shown) [Compound 172], the inhibition at 10 µM is 75.9%.

On to `CCn1c(C(C)NS(=O)(=O)c2cc3ccccc3s2)cnc1Oc1ccc(C)cc1` (stereo not shown) [Compound 177], for which the inhibition at 10 µM came out at 77.7%.

Turning to `CCn1c(C(C)NS(=O)(=O)c2csc3ccccc23)cnc1Oc1ccc(C)cc1` (stereo not shown) [Compound 178], the inhibition at 10 µM amounted to 64.2%.

Turning to `CCn1c(Oc2ccc(C)cc2)cnc1C(C)NS(=O)(=O)c1ccc(Cl)c(Cl)c1` (stereo not shown) [Compound 179, 3,4-Dichloro-N-[1-(1-ethyl-5-(4-methylphenoxy)-1H-imidazol-2-yl)-ethyl]-benzenesulfonamide], the inhibition at 10 µM amounted to 95.9%.

Consider `CCn1c(C(C)NS(=O)(=O)c2ccc(Cl)c(Cl)c2)cnc1Oc1cccc(N2CCN(C)CC2)c1` (stereo not shown) [Compound 184, 3,4-Dichloro-N-(1-{3-ethyl-2-[3-(4-methylpiperazin-1-yl)-phenoxy]-3H-imidazol-4-yl}-ethyl)-benzenesulfonamide], for which the inhibition at 10 µM worked out at 95.3%.

With `CCn1c(C(C)NS(=O)(=O)c2ccc(Cl)c(Cl)c2)cnc1Oc1ccc(Cl)cc1` (stereo not shown) [Compound 189, 3,4-Dichloro-N-{1-[3-ethyl-2-(4-chlorophenoxy)-3H-imidazol-4-yl]-ethyl}-benzenesulfonamide], the inhibition at 10 µM worked out at 97.2%.

Staying with this test, now noted: membrane system binding test, various concentrations.
`CCn1c(C(C)NS(=O)(=O)c2ccc(Cl)c(Cl)c2)cnc1Oc1cccc(N2CCN(C)CC2)c1` (stereo not shown) [Compound 184, 3,4-Dichloro-N-(1-{3-ethyl-2-[3-(4-methylpiperazin-1-yl)-phenoxy]-3H-imidazol-4-yl}-ethyl)-benzenesulfonamide]: the IC50 was determined as 14.3 nM.

For the molecule `CCn1c(C(C)NS(=O)(=O)c2ccc(Cl)c(Cl)c2)cnc1Oc1ccc(Cl)cc1` (stereo not shown) [Compound 189, 3,4-Dichloro-N-{1-[3-ethyl-2-(4-chlorophenoxy)-3H-imidazol-4-yl]-ethyl}-benzenesulfonamide], the IC50 was no more than 70 nM.

The same test, now with this note: read-out: Binding test (membrane) % inhibition (10 μM).
In the case of `CCn1c(C(C)NS(=O)(=O)c2ccc(F)cc2Cl)cnc1Oc1ccc(C)cc1` (stereo not shown) [Compound 82], the inhibition at 10 µM came out at 64.2%.

As usually defined, the inhibition is the change of the read-out against control, counted positive when it falls. In general, IC50 refers to the midpoint of a concentration-inhibition curve. Lower therefore signals greater potency.
